Test results published in patent publication US11339151B2, “Aliphatic acid amide derivative” (Sumitomo Dainippon Pharma Co., Ltd., priority 2019, dated 2022).

Key:
hERG channel = hERG channel (Homo sapiens (Human), UniProt Q12809); experiment: Test 5: inhibitory activity for hERG channel (whole cell patch clamp, hERG-CHO cells); assay type: cell-based; conditions: hERG-CHO cells, auto patch clamp
Procedure: Test 5: Evaluation of Inhibitory Activity for hERG Channel
Inhibitory activity of the present compound for hERG channel was measured by whole cell patch clamp method with an auto patch clamp system using CHO cells in which hERG channel involved in human rapidly activating delayed rectifier potassium current (IKr) was forcibly expressed.
hERG-CHO cells purchased from ChanTest Cop. were cultured in a CO2 incubator at 37° C., and dissociated from a flask with trypsin shortly before the measurement of hERG current to prepare a cell suspension.
The cell suspension, the extracellular fluid, the intracellular fluid, and the measurement plate were set in an auto patch clamp system, and hERG current was measured by whole cell patch clamp method. […] Each pulse interval was 15 seconds. The data analysis was carried out with Qube Assay Software (Sophion Sophion). The test was carried out by applying incrementally 4 concentrations of each test compound, and the average of the maximum peak tail currents which were obtained from the last 3 stimulations in each concentration was determined as the evaluated data.

[1] = Test 3-1: metabolic stability test in human hepatic microsome; assay type: in vitro ADME; conditions: microsome 0.1 mg/mL, test compound 0.1 μmol/L, 37° C., 30 minutes
Procedure: Test 3-1: Metabolic Stability Test in Human Hepatic Microsome
The metabolic stability of the present compound in human hepatic microsome was evaluated as mentioned below. Human hepatic microsome was obtained from Xenontech. Human hepatic microsome, NADPH, and each test compound were mixed in 25 mmol/L phosphate buffer solution (pH 7.4) to reach the following concentrations as shown below, and the mixture was incubated at 37° C. for 30 minutes. • Human hepatic microsome: 0.1 mg/mL • NADPH: 3.2 mmol/L • Test compound: 0.1 μmol/L
The residual ratio of test compound in each sample after 30 minutes was measured by LC-MS, and the metabolic stability in human hepatic microsome was calculated from the following formula. Metabolic stability in human hepatic microsome (mL/min/mg protein)=−LN (residual ratio)/30/0.1

human D2 receptor = human D2 receptor (Homo sapiens (Human), UniProt P14416); experiment: Test 1: binding activity for human D2 receptor ([3H]Spiperone, CHO cell membrane fraction); conditions: [3H]Spiperone, room temperature 60 minutes
Procedure: (§1) Ki value was evaluated from dissociation constant which was calculated from saturated binding tests, and a substrate concentration, and it was used as an index for binding affinity.

human 5-HT7 receptor [2] = molecular target: T1, human 5-HT7 receptor (Homo sapiens (Human), UniProt P34969); experiment: Test 1: binding activity for human 5-HT7 receptor ([3H]SB-269970, CHO cell membrane fraction); conditions: [3H]SB-269970, room temperature 60 minutes
Procedure: as §1

human 5-HT7 receptor [3] = molecular target: T1, human 5-HT7 receptor; experiment: Test 2: antagonist activity for human 5-HT7 receptor (aequorin luminescence, CHO-K1 cells); assay type: cell-based; conditions: Gα16
Procedure: Test 2: Evaluation of Antagonist Activity for Human 5-HT2A Receptor and Human 5-HT7 Receptor
Aequorin, Gα 16 protein, and each receptor were transiently expressed in CHO-K1 cells (Chinese hamster ovary). The cells were cultivated in a CO2 incubator at 37° C. overnight, seeded into a 384-well plate, and stood at room temperature for 2 hours. Each compound dissolved in DMSO was added thereto, and changes in luminescence were measured by FDSS/μCELL drug discovery screening support system (Hamamatsu Photonics K.K.). As for antagonist activity, inhibitory activity of each compound was calculated by setting the luminescence level of wells to which 10 μmol/L endogenous ligand was added as 100%.

Chain of human D2 receptor (P14416 whole entry): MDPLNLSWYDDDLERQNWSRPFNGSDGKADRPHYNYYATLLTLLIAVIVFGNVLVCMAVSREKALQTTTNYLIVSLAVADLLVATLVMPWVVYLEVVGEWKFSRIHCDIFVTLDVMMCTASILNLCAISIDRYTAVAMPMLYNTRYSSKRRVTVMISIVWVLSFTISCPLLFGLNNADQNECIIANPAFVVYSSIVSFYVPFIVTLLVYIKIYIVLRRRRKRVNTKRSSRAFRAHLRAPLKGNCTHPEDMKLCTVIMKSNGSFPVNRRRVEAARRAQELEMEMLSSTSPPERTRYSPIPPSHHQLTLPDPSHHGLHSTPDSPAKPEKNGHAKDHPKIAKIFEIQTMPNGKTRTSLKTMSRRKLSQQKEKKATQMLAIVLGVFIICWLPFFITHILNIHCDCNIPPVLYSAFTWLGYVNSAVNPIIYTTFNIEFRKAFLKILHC
T1 sequence (P34969 whole entry): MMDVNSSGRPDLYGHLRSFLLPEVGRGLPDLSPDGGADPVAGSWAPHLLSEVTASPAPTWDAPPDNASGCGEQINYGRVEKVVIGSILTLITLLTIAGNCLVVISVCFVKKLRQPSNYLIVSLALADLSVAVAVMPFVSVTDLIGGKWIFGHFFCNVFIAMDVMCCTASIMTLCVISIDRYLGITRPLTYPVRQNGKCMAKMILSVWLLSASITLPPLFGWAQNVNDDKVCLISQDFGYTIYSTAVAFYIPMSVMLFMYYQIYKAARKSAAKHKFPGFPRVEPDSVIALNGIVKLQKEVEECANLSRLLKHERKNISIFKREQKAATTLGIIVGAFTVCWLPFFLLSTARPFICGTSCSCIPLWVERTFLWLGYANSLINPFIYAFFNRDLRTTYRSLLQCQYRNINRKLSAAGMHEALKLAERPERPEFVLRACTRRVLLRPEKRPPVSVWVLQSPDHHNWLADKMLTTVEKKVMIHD
Chain of hERG channel (Q12809 whole entry): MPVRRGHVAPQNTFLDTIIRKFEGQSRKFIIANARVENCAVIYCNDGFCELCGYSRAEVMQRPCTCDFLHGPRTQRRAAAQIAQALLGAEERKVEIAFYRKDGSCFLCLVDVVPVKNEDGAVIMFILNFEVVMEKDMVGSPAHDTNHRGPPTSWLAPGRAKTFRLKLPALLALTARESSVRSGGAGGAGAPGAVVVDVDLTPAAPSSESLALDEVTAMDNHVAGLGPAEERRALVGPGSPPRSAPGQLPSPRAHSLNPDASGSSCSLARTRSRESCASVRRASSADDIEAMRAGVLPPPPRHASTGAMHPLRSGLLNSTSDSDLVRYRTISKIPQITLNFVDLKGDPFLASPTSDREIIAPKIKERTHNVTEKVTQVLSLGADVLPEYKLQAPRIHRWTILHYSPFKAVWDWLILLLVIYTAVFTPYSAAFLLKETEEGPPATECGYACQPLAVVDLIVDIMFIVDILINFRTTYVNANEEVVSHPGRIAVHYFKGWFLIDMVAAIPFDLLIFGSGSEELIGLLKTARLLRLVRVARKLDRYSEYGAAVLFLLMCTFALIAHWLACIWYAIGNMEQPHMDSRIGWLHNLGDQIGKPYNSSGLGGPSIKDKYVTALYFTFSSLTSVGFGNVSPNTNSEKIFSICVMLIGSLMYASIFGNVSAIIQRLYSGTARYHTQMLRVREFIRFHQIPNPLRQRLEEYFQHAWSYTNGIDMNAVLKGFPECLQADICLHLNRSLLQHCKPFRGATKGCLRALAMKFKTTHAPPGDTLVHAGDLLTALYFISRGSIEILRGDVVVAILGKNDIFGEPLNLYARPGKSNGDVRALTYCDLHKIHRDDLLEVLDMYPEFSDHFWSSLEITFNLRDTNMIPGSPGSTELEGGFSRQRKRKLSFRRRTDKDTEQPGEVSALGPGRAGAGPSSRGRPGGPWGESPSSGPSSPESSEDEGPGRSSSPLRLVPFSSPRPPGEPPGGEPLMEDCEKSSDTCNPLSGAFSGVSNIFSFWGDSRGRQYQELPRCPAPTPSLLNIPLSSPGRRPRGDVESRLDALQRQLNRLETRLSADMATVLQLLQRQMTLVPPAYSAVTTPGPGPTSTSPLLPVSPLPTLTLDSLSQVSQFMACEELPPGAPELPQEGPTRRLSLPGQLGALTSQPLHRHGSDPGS

Structure (SMILES)	Metabolic stability in human hepatic microsome [1]	Ki (human D2 receptor)	Ki (human 5-HT7 receptor [2])	IC50 (human 5-HT7 receptor [3])	IC50 (hERG channel)
CCN(CCN1CCC(c2noc3cc(F)ccc23)CC1)C(=O)[C@@H](C)O [Example 1, (2R)—N-Ethyl-N-{2-[4-(6-fluoro-1,2-benzoisoxazol-3-yl)piperidin-1-yl]ethyl}-2-hydroxypropanamide]	<0.05 mL/min/mg protein				4800 nM
CCN(CCN1CCC(n2ncc3cc(F)ccc32)CC1)C(=O)[C@@H](C)O [Example 3, (2R)—N-Ethyl-N-{2-[4-(5-fluoro-1H-indazol-1-yl)piperidin-1-yl]ethyl}-2-hydroxypropanamide]	<0.05 mL/min/mg protein	> 1000 nM			> 10000 nM
CCN(CCN1CCC(c2noc3cc(F)ccc23)CC1)C(=O)C(C)(C)CO [Example 7]	0.08 mL/min/mg protein	79 nM	1 nM	11 nM	3500 nM
CCN(CCN1CCC(c2noc3cc(F)ccc23)CC1)C(=O)C1CCC(O)CC1 (stereo not drawn) [Example 9]	<0.05 mL/min/mg protein	< 100 nM	1.6 nM	8 nM	
CCN(CCN1CCC(c2noc3ccc(C)cc23)CC1)C(=O)[C@H](C)O [Example 14]		> 1000 nM	14.6 nM	82 nM	9600 nM
CCN(CCN1CCC(c2c[nH]c3cc(F)ccc23)CC1)C(=O)[C@H](C)O [Example 20, (2S)—N-Ethyl-N-{2-[4-(6-fluoro-1H-indol-3-yl)piperidin-1-yl]ethyl}-2-hydroxypropanamide]	<0.05 mL/min/mg protein	46 nM	1.5 nM	48 nM	
CCN(CCN1CCC(n2ncc3cc(F)ccc32)CC1)C(=O)[C@H](C)O [Example 21, (2S)—N-Ethyl-N-{2-[4-(5-fluoro-1H-indazol-1-yl)piperidin-1-yl]ethyl}-2-hydroxypropanamide]	<0.05 mL/min/mg protein	> 1000 nM			15300 nM
CC(O)C(=O)N(CC#N)CCN1CCC(c2noc3cc(F)ccc23)CC1 (stereo not drawn) [Example 32]		> 10000 nM	110 nM	73 nM	
CCN(CCN1CCC(c2noc3cc(F)ccc23)CC1)C(=O)C(F)(F)CO [Example 36]	<0.05 mL/min/mg protein	80 nM	1 nM	82 nM	
CCCN(CCN1CCC(c2noc3cc(F)ccc23)CC1)C(=O)C(C)O (stereo not drawn) [Example 39]	<0.05 mL/min/mg protein	< 100 nM	0.7 nM	9 nM	
CCN(CCN1CCC(c2noc3cc(F)ccc23)CC1)C(=O)[C@H]1CC[C@@H](O)CC1 [Example 44]	<0.05 mL/min/mg protein	< 100 nM	3.2 nM	77 nM	
CCN(CCN1CCC(c2noc3cc(F)ccc23)CC1)C(=O)C(O)CN (stereo not drawn) [Example 65, 3-Amino-N-ethyl-N-{2-[4-(6-fluoro-1,2-benzoisoxazol-3-yl)piperidin-1-yl]ethyl}-2-hydroxypropanamide]	<0.05 mL/min/mg protein	195 nM	7.6 nM	81 nM	
CCN(CCN1CCC(c2noc3cc(F)ccc23)CC1)C(=O)C1CN(C(C)=O)CC1O (stereo not drawn) [Example 73]		205 nM	14.4 nM	81 nM	

More lines, main results first:

Metabolic stability in human hepatic microsome [1]	Ki (human D2 receptor)	Ki (human 5-HT7 receptor [2])	IC50 (human 5-HT7 receptor [3])	Structure (SMILES)	IC50 (hERG channel)
<0.05 mL/min/mg protein	> 1000 nM	9.3 nM	94 nM	CCN(CCN1CCC(n2ncc3cc(F)ccc32)CC1)C(=O)CCO [Example 2, N-Ethyl-N-{2-[4-(5-fluoro-1H-indazol-1-yl)piperidin-1-yl]ethyl}-3-hydroxypropanamide]	7400 nM
<0.05 mL/min/mg protein				CCN(CCN1CCC(c2noc3cc(F)ccc23)CC1)C(=O)C(C)O (stereo not drawn) [Example 4]	7100 nM
0.186 mL/min/mg protein	116 nM	2.4 nM	66 nM	CCN(CCN1CCC(c2noc3cc(F)ccc23)CC1)C(=O)C(O)CCC(=O)OC (stereo not drawn) [Example 5]	1100 nM
0.053 mL/min/mg protein	278 nM	5.7 nM	66 nM	CCN(CCN1CCC(c2noc3cc(F)ccc23)CC1)C(=O)C(C)(C)O [Example 6]	1500 nM
0.108 mL/min/mg protein	294 nM	6.2 nM	8 nM	CCN(CCN1CCC(c2noc3cc(F)ccc23)CC1)C(=O)C(O)C(C)C (stereo not drawn) [Example 8]	4200 nM
<0.05 mL/min/mg protein	< 100 nM	2.7 nM	9 nM	CCN(CCN1CCC(c2noc3cc(F)ccc23)CC1)C(=O)CC(C)O (stereo not drawn) [Example 10]	3600 nM
<0.05 mL/min/mg protein	< 100 nM	5.2 nM	67 nM	CCN(CCN1CCC(c2noc3cc(F)ccc23)CC1)C(=O)C1(O)CCOCC1 [Example 11]	10500 nM
0.089 mL/min/mg protein		6.9 nM	82 nM	CCN(CCN1CCC(c2noc3cc(F)ccc23)CC1)C(=O)CO [Example 12]	2200 nM
	> 1000 nM	26.4 nM	86 nM	CCN(CCN1CCC(c2noc3cc(Cl)ccc23)CC1)C(=O)[C@H](C)O [Example 15]	
	< 100 nM	10 nM	80 nM	C#CC(O)C(=O)N(CC)CCN1CCC(c2noc3cc(F)ccc23)CC1 (stereo not drawn) [Example 28]	
<0.05 mL/min/mg protein				[2H]C(C)(O)C(=O)N(CC)CCN1CCC(c2noc3cc(F)ccc23)CC1 (stereo not drawn) [Example 40]	9900 nM
<0.05 mL/min/mg protein	< 100 nM	4.3 nM	82 nM	CCN(CCN1CCC(c2noc3cc(F)ccc23)CC1)C(=O)[C@H]1CC[C@H](O)CC1 [Example 43]	
<0.05 mL/min/mg protein	75 nM	4.2 nM	83 nM	CCN(CCN1CCC(c2noc3cc(F)ccc23)CC1)C(=O)C1CC(O)C1 (stereo not drawn) [Example 46]	
<0.05 mL/min/mg protein	116 nM	2.6 nM	1 nM	CCN(CCCN1CCC(c2noc3ccccc23)CC1)S(=O)(=O)C(C)CO (stereo not drawn) [Example 54]	
0.059 mL/min/mg protein	78 nM	0.1 nM	3 nM	CCN(CCCN1CCN(c2noc3cc(F)ccc23)CC1)S(=O)(=O)C(C)CO (stereo not drawn) [Example 55]	
	> 1000 nM	24.3 nM	72 nM	CCN(CCN1CCC(c2noc3cc(Cl)ccc23)CC1)S(=O)(=O)CCO [Example 60]	
<0.05 mL/min/mg protein	910 nM	48.5 nM	91 nM	CCN(CCN1CCC(c2noc3cc(F)ccc23)CC1)C(=O)[C@H]1NCC[C@H]1O [Example 68]	
